Results on 15 compounds are retold here after patent US10670605B2, “Cysteine reactive probes and uses thereof” (The Scripps Research Institute, priority 2015, dated 2020).

Common to all, as to assay: Competitive isoTOP-ABPP in situ (fragment-treated cells)
Format in all cases: cell-based

Experiment [1] deals with cysteines in MDA-MB-231 and Ramos cells (Homo sapiens, UniProt O15446). The conditions noted are these: 200 μM, insitu, 231.
Method: (§1) Fragments 4 and 11 were screened at 100 μM in situ. […] Site-specific engagement of electrophilic fragments was assessed by blockade of IA-alkyne probe labeling. […] Ratios for unique peptide entries were calculated for each experiment; overlapping peptides with the same modified cysteine (e.g. different charge states, MudPIT chromatographic steps or tryptic termini) were grouped together and the median ratio was reported as the final ratio (R). The peptide ratios reported by CIMAGE were further filtered to ensure the removal or correction of low quality ratios in each individual dataset. […] R values were calculated and individual datasets were filtered as described above (R value calculation and processing).
Experiment [2] deals with T1, cysteines in MDA-MB-231 and Ramos cells (Homo sapiens, UniProt Q86UY8).
T1 sequence (Q86UY8 1-548): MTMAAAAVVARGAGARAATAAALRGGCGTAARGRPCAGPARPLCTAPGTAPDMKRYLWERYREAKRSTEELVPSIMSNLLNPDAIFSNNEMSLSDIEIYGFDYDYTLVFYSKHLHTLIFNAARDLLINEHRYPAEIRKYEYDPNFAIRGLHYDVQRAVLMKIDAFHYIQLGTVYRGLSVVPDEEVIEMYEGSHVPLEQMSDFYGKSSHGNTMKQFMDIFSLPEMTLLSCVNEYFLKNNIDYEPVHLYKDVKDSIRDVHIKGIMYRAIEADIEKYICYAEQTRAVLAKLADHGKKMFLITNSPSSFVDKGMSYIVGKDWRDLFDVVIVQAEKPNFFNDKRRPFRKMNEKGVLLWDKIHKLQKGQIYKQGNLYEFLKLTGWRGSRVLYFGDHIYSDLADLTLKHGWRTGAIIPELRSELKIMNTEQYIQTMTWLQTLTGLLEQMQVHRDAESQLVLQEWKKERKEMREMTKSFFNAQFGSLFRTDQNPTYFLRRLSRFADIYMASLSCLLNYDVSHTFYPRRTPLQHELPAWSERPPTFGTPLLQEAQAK
Method: as §1

The target of experiment [3] is T2, cysteines in MDA-MB-231 and Ramos cells (Homo sapiens, UniProt Q9NXV6).
T2 sequence (Q9NXV6 1-580): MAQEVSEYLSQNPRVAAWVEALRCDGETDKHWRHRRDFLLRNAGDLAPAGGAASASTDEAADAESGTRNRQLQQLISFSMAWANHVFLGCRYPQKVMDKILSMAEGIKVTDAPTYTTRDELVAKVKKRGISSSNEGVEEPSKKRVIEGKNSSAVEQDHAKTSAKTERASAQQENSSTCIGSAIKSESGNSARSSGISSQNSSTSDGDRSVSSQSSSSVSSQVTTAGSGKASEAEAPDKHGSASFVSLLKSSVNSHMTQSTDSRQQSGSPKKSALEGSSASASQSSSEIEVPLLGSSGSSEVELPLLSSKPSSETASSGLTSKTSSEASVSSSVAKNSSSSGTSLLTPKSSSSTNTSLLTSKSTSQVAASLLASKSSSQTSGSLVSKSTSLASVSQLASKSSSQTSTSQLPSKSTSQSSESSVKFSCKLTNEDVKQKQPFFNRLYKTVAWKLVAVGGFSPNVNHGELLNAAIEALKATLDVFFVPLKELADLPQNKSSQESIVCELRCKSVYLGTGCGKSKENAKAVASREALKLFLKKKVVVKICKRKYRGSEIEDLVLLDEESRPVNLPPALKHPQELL
Method: as §1

For experiment [4], the target named is cysteines in MDA-MB-231 and Ramos cells (Homo sapiens, UniProt Q06203). The conditions noted are these: for isoTOP-ABPP ratio, cysteine Q06203_C100 / isoTOP-ABPP ratio Q06203_C100: 200 μM, insitu.
Method: as §1
Experiment [5] has as its target T3, cysteines in MDA-MB-231 and Ramos cells (Homo sapiens, UniProt Q86X76).
T3 sequence (Q86X76 14-327): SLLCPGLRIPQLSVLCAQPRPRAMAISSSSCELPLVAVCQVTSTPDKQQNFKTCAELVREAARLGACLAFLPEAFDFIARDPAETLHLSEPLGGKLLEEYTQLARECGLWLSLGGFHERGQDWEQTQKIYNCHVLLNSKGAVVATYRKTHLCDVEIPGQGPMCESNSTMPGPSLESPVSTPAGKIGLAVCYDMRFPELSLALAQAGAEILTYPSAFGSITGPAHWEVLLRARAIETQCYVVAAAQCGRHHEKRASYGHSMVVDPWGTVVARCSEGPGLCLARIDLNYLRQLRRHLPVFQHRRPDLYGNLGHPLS
Method: as §1

Experiment [6] has as its target T4, cysteines in MDA-MB-231 and Ramos cells (Homo sapiens, UniProt Q96C19).
T4 sequence (Q96C19 1-240): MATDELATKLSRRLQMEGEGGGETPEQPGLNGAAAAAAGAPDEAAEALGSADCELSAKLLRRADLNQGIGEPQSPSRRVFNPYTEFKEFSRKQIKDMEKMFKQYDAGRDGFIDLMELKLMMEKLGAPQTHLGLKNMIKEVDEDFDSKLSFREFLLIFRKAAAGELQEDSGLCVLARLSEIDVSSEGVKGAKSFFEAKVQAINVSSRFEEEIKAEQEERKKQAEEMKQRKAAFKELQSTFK
Method: as §1

Sequence of cysteines in MDA-MB-231 and Ramos cells (Homo sapiens, UniProt O15446) (O15446 whole entry): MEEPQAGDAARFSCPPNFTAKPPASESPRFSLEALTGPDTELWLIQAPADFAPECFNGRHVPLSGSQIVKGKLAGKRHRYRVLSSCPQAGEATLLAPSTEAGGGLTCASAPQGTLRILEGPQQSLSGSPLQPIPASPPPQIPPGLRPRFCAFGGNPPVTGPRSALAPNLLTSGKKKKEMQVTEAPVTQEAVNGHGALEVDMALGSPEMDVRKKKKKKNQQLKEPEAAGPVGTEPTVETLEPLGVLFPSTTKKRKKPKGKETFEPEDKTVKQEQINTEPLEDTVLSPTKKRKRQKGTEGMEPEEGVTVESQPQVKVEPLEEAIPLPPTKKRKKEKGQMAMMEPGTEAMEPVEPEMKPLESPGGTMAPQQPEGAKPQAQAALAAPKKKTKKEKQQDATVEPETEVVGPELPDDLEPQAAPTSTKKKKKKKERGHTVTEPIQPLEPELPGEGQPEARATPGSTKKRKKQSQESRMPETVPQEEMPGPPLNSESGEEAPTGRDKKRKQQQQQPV
Sequence of cysteines in MDA-MB-231 and Ramos cells (Homo sapiens, UniProt Q06203) (Q06203 12-517): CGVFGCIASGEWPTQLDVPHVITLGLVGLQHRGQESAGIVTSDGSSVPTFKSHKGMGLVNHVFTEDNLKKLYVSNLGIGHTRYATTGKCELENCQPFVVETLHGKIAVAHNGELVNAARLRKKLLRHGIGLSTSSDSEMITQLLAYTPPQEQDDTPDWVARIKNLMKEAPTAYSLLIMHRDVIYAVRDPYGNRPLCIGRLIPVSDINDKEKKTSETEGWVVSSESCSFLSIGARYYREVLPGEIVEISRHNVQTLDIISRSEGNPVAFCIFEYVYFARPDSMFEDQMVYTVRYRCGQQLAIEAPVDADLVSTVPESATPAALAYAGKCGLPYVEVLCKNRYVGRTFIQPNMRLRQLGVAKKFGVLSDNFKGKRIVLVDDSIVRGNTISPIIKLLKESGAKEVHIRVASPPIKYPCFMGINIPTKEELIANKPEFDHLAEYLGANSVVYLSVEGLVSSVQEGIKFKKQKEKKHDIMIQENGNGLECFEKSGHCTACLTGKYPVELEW

With `COc1ccc2c(c1)CCCN2C(=O)CCl` [compound 2], in experiment [1], the “isoTOP-ABPP reactivity O15446_C86 CD3EAP” value is recorded as 3.9. Further, the “isoTOP-ABPP reactivity Q86UY8_C276 NT5DC3” value in experiment [2] (200 μM, insitu, 231) was 3.8. Besides, in experiment [3] (200 μM, insitu, 231), the “isoTOP-ABPP reactivity Q9NXV6_C516 CDKN2AEP” value is recorded as 20.0.

On to `COc1ccc(C2CC(c3cccs3)=NN2C(=O)CCl)cc1` (centres unmarked) [compound 4], for which the “isoTOP-ABPP reactivity Q06203_C100 PPAT” value in experiment [4] (100 μM in situ 231) worked out at 1.7. The “isoTOP-ABPP reactivity Q86X76_C203 NIT1” value in experiment [5] (100 μM in situ 231) is recorded as 0.7. For the same compound, the “isoTOP-ABPP reactivity Q96C19_C172 EFHD2” value in experiment [6] (100 μM in situ 231) stood at 5.3.

Regarding `O=C(CCl)N1CCC(Cc2ccccc2)CC1` [compound 9], the “isoTOP-ABPP reactivity Q96C19_C172 EFHD2” value in experiment [6] (200 μM, insitu, 231) stood at 2.8. The “isoTOP-ABPP reactivity Q9NXV6_C516 CDKN2AEP” value in experiment [3] (200 μM, insitu, 231) stood at 6.6.

As to `O=C(CCl)N1CCN(S(=O)(=O)c2ccccc2F)CC1` [compound 10], the “isoTOP-ABPP ratio, cysteine O15446_C86” value in experiment [1] was determined as 4.7. The “isoTOP-ABPP ratio, cysteine Q06203_C100” value in experiment [4] (ramos) turned out to be 20.0. In experiment [2] (200 μM, insitu, 231), the “isoTOP-ABPP ratio Q86UY8_C276” value was found to be 5.8. In experiment [6] (200 μM, insitu, 231), the “isoTOP-ABPP ratio Q96C19_C172” value is on record as 2.4. Further, in experiment [3] (200 μM, insitu, 231), the “isoTOP-ABPP ratio Q9NXV6_C516” value is 7.7.

Turning to `Cn1cc(S(=O)(=O)N2CCOCC2)cc1C(=O)NC(=O)CCl` [compound 11], the “isoTOP-ABPP ratio Q86UY8_C276” value in experiment [2] (100 μM in situ 231) came to 1.4. Further, in experiment [5] (100 μM in situ 231), the “isoTOP-ABPP ratio, cysteine Q86X76_C203” value is recorded as 0.8. Besides, in experiment [6] (100 μM in situ 231), the “isoTOP-ABPP ratio Q96C19_C172” value worked out at 0.9. The “isoTOP-ABPP ratio Q9NXV6_C516” value in experiment [3] (100 μM in situ 231) came to 1.0.

Consider `O=C(CCl)NC(=O)NC12CC3CC(CC(C3)C1)C2` [compound 12], for which the “isoTOP-ABPP ratio, cysteine O15446_C86” value in experiment [1] stood at 3.3. Moreover, the “isoTOP-ABPP ratio Q86UY8_C276” value in experiment [2] (200 μM, insitu, 231) was 20.0. In experiment [5] (200 μM, insitu, 231), the “isoTOP-ABPP ratio, cysteine Q86X76_C203” value is recorded as 3.9. The “isoTOP-ABPP ratio Q96C19_C172” value in experiment [6] (200 μM, insitu, 231) is on record as 0.9. Besides, the “isoTOP-ABPP ratio Q9NXV6_C516” value in experiment [3] (200 μM, insitu, 231) was 3.3.

Regarding `O=C(CCl)NCCc1c[nH]c2ccccc12` [compound 13], the “isoTOP-ABPP ratio, cysteine O15446_C86” value in experiment [1] stood at 1.3. Besides, the “isoTOP-ABPP ratio, cysteine Q06203_C100” value in experiment [4] (ramos) is 2.0. Further, the “isoTOP-ABPP ratio Q86UY8_C276” value in experiment [2] (200 μM, insitu, 231) is on record as 1.5. Besides, the “isoTOP-ABPP ratio Q96C19_C172” value in experiment [6] (200 μM, insitu, 231) came to 0.7. Also, the “isoTOP-ABPP ratio Q9NXV6_C516” value in experiment [3] (200 μM, insitu, 231) is reported as 2.4; in experiment [3] (200 μM, insitu, ramos) it was 1.6.

As to `O=C(CCl)NC12CC3CC(CC(C3)C1)C2` [compound 21], the “isoTOP-ABPP ratio, cysteine O15446_C86” value in experiment [1] worked out at 1.7. The “isoTOP-ABPP ratio Q86UY8_C276” value in experiment [2] (200 μM, insitu, 231) is on record as 1.8. In addition, the “isoTOP-ABPP ratio, cysteine Q86X76_C203” value in experiment [5] (200 μM, insitu, 231) was found to be 0.8. Also, the “isoTOP-ABPP ratio Q9NXV6_C516” value in experiment [3] (200 μM, insitu, 231) stood at 0.8.

Consider `CC(C)CCOCCNC(=O)CCl` [compound 27], for which the “isoTOP-ABPP ratio Q06203_C100” value in experiment [4] (231) was determined as 0.8. In addition, the “isoTOP-ABPP ratio Q86UY8_C276” value in experiment [2] (200 μM, insitu, 231) was 1.7. In addition, the “isoTOP-ABPP ratio Q9NXV6_C516” value in experiment [3] (200 μM, insitu, 231) was 1.4.

On to `O=C(CCl)N1CCN(CC(=O)N2CCOCC2)CC1` [compound 29], for which the “isoTOP-ABPP ratio Q06203_C100” value in experiment [4] (ramos) worked out at 1.6. In experiment [6] (200 μM, insitu, ramos), the “isoTOP-ABPP ratio Q96C19_C172” value turned out to be 1.2. Moreover, in experiment [3] (200 μM, insitu, ramos), the “isoTOP-ABPP ratio Q9NXV6_C516” value came out at 1.1.

With `C=CC(=O)N(Cc1cccnc1)c1cc(C(F)(F)F)cc(C(F)(F)F)c1` [compound 31], the “isoTOP-ABPP ratio Q06203_C100” value in experiment [4] (231) was found to be 0.6; in experiment [4] (ramos) it was 1.2. Besides, the “isoTOP-ABPP ratio Q96C19_C172” value in experiment [6] (200 μM, insitu, 231) is 1.6.

On to `C=CC(=O)Nc1cc(F)c(N2CCN(C(=O)OC(C)(C)C)CC2)c(F)c1` [compound 38], for which the “isoTOP-ABPP ratio Q06203_C100” value in experiment [4] (231) is given as 1.2. The “isoTOP-ABPP ratio Q96C19_C172” value in experiment [6] (200 μM, insitu, 231) was 0.7. The “isoTOP-ABPP ratio Q9NXV6_C516” value in experiment [3] (200 μM, insitu, 231) is recorded as 1.8.

In the case of `Cc1ccc(C=C(C#N)C(=O)NCCN2CCOCC2)cc1` [compound 41], in experiment [2] (200 μM, insitu, 231), the “isoTOP-ABPP ratio Q86UY8_C276” value is on record as 1.7. Besides, the “isoTOP-ABPP ratio Q86X76_C203” value in experiment [5] (200 μM, insitu, 231) was found to be 1.3. In experiment [6] (200 μM, insitu, 231), the “isoTOP-ABPP ratio Q96C19_C172” value is 0.5. Besides, the “isoTOP-ABPP ratio Q9NXV6_C516” value in experiment [3] (200 μM, insitu, 231) came out at 0.9.

As for `CC1CCc2ccccc2N1C(=O)CCl` (centres unmarked) [compound 45], the “isoTOP-ABPP ratio O15446_C86” value in experiment [1] came to 4.6. Also, the “isoTOP-ABPP ratio Q86UY8_C276” value in experiment [2] (200 μM, insitu, 231) came to 2.1. In addition, the “isoTOP-ABPP ratio Q86X76_C203” value in experiment [5] (200 μM, insitu, 231) came out at 20.0.

Take `O=C(CCl)Nc1cccc2ncccc12` [compound 51]: the “isoTOP-ABPP ratio Q86UY8_C276” value in experiment [2] (200 μM, insitu, 231) is 1.2. In addition, in experiment [6] (200 μM, insitu, 231), the “isoTOP-ABPP ratio Q96C19_C172” value is given as 1.2.
